Data on ten molecules can be found in ChEMBL document CHEMBL3045378, “Synthesis and evaluation of 4-amino-5-phenyl-4H-[1,2,4]-triazole-3-thiol derivatives as antimicrobial agents” (2010).

≈ marks a conversion by molar mass, not a printed value. Bounds are passed on as bounds.

Common to all, as to assay type: functional
The subject of experiment [1] is Aspergillus niger. Description: Antifungal activity against Aspergillus niger ATCC 4578 at 5 to 20 ug/ml after 24 hr by paper disk diffusion method.
The test system of experiment [2] is Pseudomonas aeruginosa. Description: Antibacterial activity against Pseudomonas aeruginosa MTCC 3363 5 to 20 ug/ml after 24 hr by paper disk diffusion method.
The subject of experiment [3] is Pseudomonas fluorescens. Description: Antibacterial activity against Pseudomonas fluorescens ATCC 3458 5 to 20 ug/ml after 24 hr by paper disk diffusion method.
Experiment [4] has as its system Trichoderma. Description: Antifungal activity against Trichoderma sp. ATCC 5248 after 24 hr by paper disk diffusion method. The note with it: ATCC 5248, 24 h.
The subject of experiment [5] is Bacillus subtilis. Description: Antibacterial activity against Bacillus subtilis ATCC 6633 5 to 20 ug/ml after 24 hr by paper disk diffusion method.
Experiment [6] relates to Fusarium verticillioides. Description: Antifungal activity against Fusarium verticillioides NCIM 1276 after 24 hr by paper disk diffusion method. Conditions: NCIM 1276, 24 h.
Experiment [7] has as its system Saccharomyces cerevisiae. Description: Antifungal activity against Saccharomyces cerevisiae 180 after 24 hr by paper disk diffusion method. The note with it: Saccharomyces cerevisiae, 180, 24 h.
In experiment [8] the test system is Aspergillus niger. Description: Antifungal activity against Aspergillus niger ATCC 4578 after 24 hr by paper disk diffusion method. Conditions: ATCC 4578, 24 h.
Experiment [9] concerns Bacillus subtilis. Description: Antibacterial activity against Bacillus subtilis ATCC 6633 after 24 hr by paper disk diffusion method. The note with it: ATCC 6633, 24 h.
In experiment [10] the test system is Fusarium verticillioides. Description: Antifungal activity against Fusarium verticillioides NCIM 1276 at 5 to 20 ug/ml after 24 hr by paper disk diffusion method.
Experiment [11] relates to Trichoderma. Description: Antifungal activity against Trichoderma sp. ATCC 5248 at 5 to 20 ug/ml after 24 hr by paper disk diffusion method.
Experiment [12] deals with Saccharomyces cerevisiae. Description: Antifungal activity against Saccharomyces cerevisiae 180 at 5 to 20 ug/ml after 24 hr by paper disk diffusion method.
The subject of experiment [13] is Pseudomonas fluorescens. Description: Antibacterial activity against Pseudomonas fluorescens ATCC 3458 after 24 hr by paper disk diffusion method. Conditions: ATCC 3458, 24 h.
Experiment [14] has as its system Escherichia coli. Description: Antibacterial activity against Escherichia coli DH5[alpha] at 5 to 20 ug/ml after 24 hr by paper disk diffusion method.
For experiment [15], the system named is Pseudomonas aeruginosa. Description: Antibacterial activity against Pseudomonas aeruginosa MTCC 3363 after 24 hr by paper disk diffusion method. The note with it: MTCC 3363, 24 h.
The subject of experiment [16] is Escherichia coli. Description: Antibacterial activity against Escherichia coli DH5[alpha] after 24 hr by paper disk diffusion method.

In the case of `Nn1c(Sc2ccc(S(=O)(=O)Cl)cc2)nnc1-c1ccccc1`, the “diameter of the inhibition zone (DIZ)” value is less than 12 mm in [1]; less than 10 mm in [2]; less than 10 mm in [3]; less than 10 mm in [5]; less than 12 mm in experiment [10]; less than 12 mm in [11]. In addition, the “diameter of the inhibition zone (DIZ)” value in [12] was less than 12 mm; in experiment [14], less than 10 mm. Besides, the MIC in [4], in experiment [6], in experiment [7], in experiment [8], in experiment [9] and in experiment [13] was 15 µg/mL (≈ 40.9 µM) throughout. In addition, the MIC in experiment [15] and in experiment [16] was 15 µg/mL (≈ 40.9 µM) throughout.

On to `CC(=O)N1CCN(c2ccc(OCC3COC(Cn4ccnc4)(c4ccc(Cl)cc4Cl)O3)cc2)CC1` (centres undefined) [KETOCONAZOLE], for which the “diameter of the inhibition zone (DIZ)” value in experiment [1] is reported as 16 mm; in experiment [10], 20 mm; in [11] it was 25 mm; in [12], 18 mm. Further, the MIC in experiment [4], in experiment [6], in [7] and in experiment [8] was 5 µg/mL (≈ 9.41 µM) throughout.

Regarding `Nn1c(Sc2ccc(Cl)cc2)nnc1-c1ccccc1`, the “diameter of the inhibition zone (DIZ)” value in experiment [1], in experiment [2], in experiment [3], in experiment [5], in experiment [10] and in experiment [11] was 16 mm each time. Further, the “diameter of the inhibition zone (DIZ)” value in experiment [12] and in experiment [14] was 16 mm each time. Further, the MIC in experiment [4], in [6], in [7], in [8], in experiment [9] and in experiment [13] was 10 µg/mL (≈ 33 µM) in each case. In addition, the MIC in experiment [15] and in experiment [16] was 10 µg/mL (≈ 33 µM) throughout.

Regarding `Nn1c(S)nnc1-c1ccccc1O`, the “diameter of the inhibition zone (DIZ)” value in experiment [1], in experiment [2], in [3], in experiment [5], in experiment [10] and in experiment [11] was 16 mm throughout. Besides, the “diameter of the inhibition zone (DIZ)” value in experiment [12] and in experiment [14] was 16 mm throughout. Besides, the MIC in experiment [4], in experiment [6], in experiment [7], in experiment [8], in [9] and in experiment [13] was 12.5 µg/mL (≈ 60 µM) in each case. The MIC in experiment [15] and in experiment [16] was 12.5 µg/mL (≈ 60 µM) in each case.

For `Nn1c(Sc2ccc(C(Cl)(Cl)Cl)cc2)nnc1-c1ccccc1`, the “diameter of the inhibition zone (DIZ)” value worked out at 14 mm in experiment [1]; 16 mm in experiment [2]; 14 mm in [3]; 14 mm in [5]; 18 mm in experiment [10]; 22 mm in experiment [11]. Also, the “diameter of the inhibition zone (DIZ)” value in experiment [12] is reported as 16 mm; in experiment [14], 14 mm. Besides, the MIC in experiment [4], in [6], in experiment [7], in [8], in experiment [9] and in [13] was 5 µg/mL (≈ 13 µM) throughout. Also, the MIC in experiment [15] and in experiment [16] was 5 µg/mL (≈ 13 µM) throughout.

For the molecule `CC(=O)Nn1c(S)nnc1-c1ccccc1`, the “diameter of the inhibition zone (DIZ)” value in experiment [1] is less than 12 mm; in [2] it was less than 10 mm; in experiment [3], less than 10 mm; in experiment [5], less than 10 mm; in experiment [10], less than 12 mm; in experiment [11], less than 12 mm. Also, the results for the “diameter of the inhibition zone (DIZ)” value in [12] and in [14] were less than 12 mm and less than 10 mm, respectively. For the same molecule, the MIC in experiment [4], in experiment [6], in experiment [7], in [8], in experiment [9] and in experiment [13] was 15 µg/mL (≈ 64 µM) each time. For the same molecule, the MIC in [15] and in [16] was 15 µg/mL (≈ 64 µM) in each case.

As to `CO/N=C(\C(=O)N[C@@H]1C(=O)N2C(C(=O)O)=C(CSc3nc(=O)c(O)nn3C)CS[C@H]12)c1csc(N)n1` [CEFTRIAXONE], the “diameter of the inhibition zone (DIZ)” value in experiment [2] was determined as 18 mm; in experiment [3] it was 16 mm; in experiment [5], 16 mm; in experiment [14], 16 mm. Moreover, the MIC in [9], in [13], in [15] and in experiment [16] was 5 µg/mL (≈ 9.02 µM) throughout.

With `Nn1c(Sc2ccc(Br)cc2)nnc1-c1ccccc1`, the “diameter of the inhibition zone (DIZ)” value in [1], in experiment [2], in experiment [3], in [5], in experiment [10] and in experiment [11] was 16 mm in each case. For the same molecule, the “diameter of the inhibition zone (DIZ)” value in experiment [12] and in experiment [14] was 16 mm throughout. Further, the MIC in experiment [4], in experiment [6], in experiment [7], in experiment [8], in experiment [9] and in [13] was 10 µg/mL (≈ 28.8 µM) each time. Further, the minimum inhibitory concentration (MIC) in experiment [15] and in experiment [16] was 10 µg/mL (≈ 28.8 µM) in each case.

Turning to `Nn1c(S)nnc1-c1ccccc1`, the “diameter of the inhibition zone (DIZ)” value in experiment [1], in experiment [2], in experiment [3], in [5], in experiment [10] and in experiment [11] was 16 mm in each case. The “diameter of the inhibition zone (DIZ)” value in experiment [12] and in [14] was 16 mm throughout. In addition, the MIC in [4], in [6], in [7], in experiment [8], in [9] and in experiment [13] was 12.5 µg/mL (≈ 65 µM) each time. Also, the MIC in [15] and in experiment [16] was 12.5 µg/mL (≈ 65 µM) each time.

For `Nn1c(Sc2ccc([N+](=O)[O-])cc2[N+](=O)[O-])nnc1-c1ccccc1`, the “diameter of the inhibition zone (DIZ)” value in experiment [1] was less than 12 mm; in experiment [2], less than 10 mm; in experiment [3] it was less than 10 mm; in experiment [5] it was less than 10 mm; in [10], less than 12 mm; in experiment [11], less than 12 mm. Further, the “diameter of the inhibition zone (DIZ)” value in experiment [12] was less than 12 mm; in experiment [14] it was less than 10 mm. The MIC in experiment [4], in experiment [6], in [7], in experiment [8], in experiment [9] and in [13] was 15 µg/mL (≈ 41.9 µM) throughout. Besides, the MIC in experiment [15] and in experiment [16] was 15 µg/mL (≈ 41.9 µM) throughout.
